PubChem BioAssay (NCI)
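The concentration for 50% growth inhibition is given as GI50. Definition used: TGI = concentration required for complete inhibition of growth.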

Experiments:
Experiment in all cases: NCI-60 cell line screen, 384-well format
786-0 renal = tested on: 786-0 renal
KM12 colon = tested on: KM12 colon
HT29 colon = tested on: HT29 colon
NCI-H322M lung = tested on: NCI-H322M lung
SK-OV-3 ovarian = tested on: SK-OV-3 ovarian
SK-MEL-5 melanoma = tested on: SK-MEL-5 melanoma
OVCAR-3 ovarian = tested on: OVCAR-3 ovarian
SF-295 CNS = tested on: SF-295 CNS
NCI-H23 lung = tested on: NCI-H23 lung
HCT-15 colon = tested on: HCT-15 colon
EKVX NSCLC = tested on: EKVX NSCLC
LOX IMVI melanoma = tested on: LOX IMVI melanoma
SNB-75 CNS = tested on: SNB-75 CNS
UACC-257 melanoma = tested on: UACC-257 melanoma
MDA-MB-468 breast = tested on: MDA-MB-468 breast
A549 NSCLC = tested on: A549 NSCLC
HOP-92 NSCLC = tested on: HOP-92 NSCLC
HL-60(TB) leukemia = tested on: HL-60(TB) leukemia
U251 glioblastoma = tested on: U251 glioblastoma
A498 renal = tested on: A498 renal
RPMI-8226 leukemia = tested on: RPMI-8226 leukemia
SN12C renal = tested on: SN12C renal
NCI-H460 NSCLC = tested on: NCI-H460 NSCLC
SF-539 CNS = tested on: SF-539 CNS
IGROV1 ovarian = tested on: IGROV1 ovarian
OVCAR-4 ovarian = tested on: OVCAR-4 ovarian
HCC-2998 colon = tested on: HCC-2998 colon
SK-MEL-28 melanoma = tested on: SK-MEL-28 melanoma
UACC-62 melanoma = tested on: UACC-62 melanoma
COLO 205 colon = tested on: COLO 205 colon
OVCAR-8 ovarian = tested on: OVCAR-8 ovarian
T-47D breast = tested on: T-47D breast
PC-3 prostate = tested on: PC-3 prostate
TK-10 renal = tested on: TK-10 renal
BT-549 breast = tested on: BT-549 breast
CAKI-1 renal = tested on: CAKI-1 renal
MDA-MB-231 breast = tested on: MDA-MB-231 breast
MCF7 breast = tested on: MCF7 breast
NCI-H226 lung = tested on: NCI-H226 lung
SR leukemia = tested on: SR leukemia
NCI/ADR-RES ovarian = tested on: NCI/ADR-RES ovarian
DU-145 prostate = tested on: DU-145 prostate
UO-31 renal = tested on: UO-31 renal
MALME-3M melanoma = tested on: MALME-3M melanoma
M14 melanoma = tested on: M14 melanoma
HS 578T breast = tested on: HS 578T breast
SF-268 CNS = tested on: SF-268 CNS
SNB-19 CNS = tested on: SNB-19 CNS
NCI-H522 lung = tested on: NCI-H522 lung
CCRF-CEM leukemia = tested on: CCRF-CEM leukemia
K-562 leukemia = tested on: K-562 leukemia
MDA-MB-435 melanoma = tested on: MDA-MB-435 melanoma
MOLT-4 leukemia = tested on: MOLT-4 leukemia
OVCAR-5 ovarian = tested on: OVCAR-5 ovarian
HOP-62 NSCLC = tested on: HOP-62 NSCLC
RXF 393 renal = tested on: RXF 393 renal
SW-620 colon = tested on: SW-620 colon
ACHN renal = tested on: ACHN renal
HCT-116 colon = tested on: HCT-116 colon

## Cc1cc(Nc2cc(CN3CCOCC3)c3nc(C)c(Cc4ccc(Cl)cc4F)n3n2)n[nH]1
786-0 renal
  GI50: 688 nM
  TGI: 2320 nM
KM12 colon
  GI50: 37.8 nM
  TGI: 1470 nM
HT29 colon
  GI50: 1730 nM
  TGI: 16100 nM
NCI-H322M lung
  GI50: 1710 nM
  TGI: 4680 nM
SK-OV-3 ovarian
  GI50: 1230 nM
  TGI: 3380 nM
SK-MEL-5 melanoma
  GI50: 693 nM
  TGI: 5820 nM
OVCAR-3 ovarian
  GI50: 825 nM
  TGI: 2960 nM
SF-295 CNS
  GI50: 1210 nM
  TGI: 2700 nM
NCI-H23 lung
  GI50: 578 nM
  TGI: 2570 nM
HCT-15 colon
  GI50: 1110 nM
  TGI: 12000 nM
EKVX NSCLC
  GI50: 1580 nM
  TGI: 8090 nM
LOX IMVI melanoma
  GI50: 868 nM
  TGI: 2130 nM
SNB-75 CNS
  GI50: 812 nM
  TGI: 2350 nM
UACC-257 melanoma
  GI50: 5450 nM
  TGI: 20600 nM
MDA-MB-468 breast
  GI50: 271 nM
  TGI: 535 nM
A549 NSCLC
  GI50: 772 nM
  TGI: 3350 nM
HOP-92 NSCLC
  GI50: 554 nM
  TGI: 2560 nM
HL-60(TB) leukemia
  GI50: 302 nM
  TGI: 670 nM
U251 glioblastoma
  GI50: 1200 nM
  TGI: 2750 nM
A498 renal
  GI50: 724 nM
  TGI: 3290 nM
RPMI-8226 leukemia
  GI50: 205 nM
  TGI: 516 nM
SN12C renal
  GI50: 730 nM
  TGI: 9250 nM
NCI-H460 NSCLC
  GI50: 356 nM
  TGI: 1030 nM
SF-539 CNS
  GI50: 1080 nM
  TGI: 2450 nM
IGROV1 ovarian
  GI50: 1690 nM
  TGI: 3360 nM
OVCAR-4 ovarian
  GI50: 874 nM
  TGI: 5880 nM
HCC-2998 colon
  GI50: 1130 nM
  TGI: 2390 nM
SK-MEL-28 melanoma
  GI50: 2390 nM
  TGI: 15000 nM
UACC-62 melanoma
  GI50: 1230 nM
  TGI: 2990 nM
COLO 205 colon
  GI50: 418 nM
  TGI: 1660 nM
OVCAR-8 ovarian
  GI50: 1370 nM
  TGI: 3650 nM
T-47D breast
  GI50: 855 nM
  TGI: 14000 nM
PC-3 prostate
  GI50: 2200 nM
  TGI: 13700 nM
TK-10 renal
  GI50: 1950 nM
  TGI: 4720 nM
BT-549 breast
  GI50: 842 nM
  TGI: 2780 nM
CAKI-1 renal
  GI50: 1030 nM
  TGI: 2240 nM
MDA-MB-231 breast
  GI50: 1070 nM
  TGI: 3020 nM
MCF7 breast
  GI50: 894 nM
  TGI: 6570 nM
NCI-H226 lung
  GI50: 324 nM
  TGI: 2080 nM
SR leukemia
  GI50: 166 nM
  TGI: 312 nM
NCI/ADR-RES ovarian
  GI50: 2520 nM
  TGI: 7880 nM
DU-145 prostate
  GI50: 1020 nM
  TGI: 3000 nM
UO-31 renal
  GI50: 1440 nM
  TGI: 2880 nM
MALME-3M melanoma
  GI50: 1490 nM
  TGI: 9790 nM
M14 melanoma
  GI50: 1740 nM
  TGI: 11800 nM
HS 578T breast
  GI50: 586 nM
  TGI: 1810 nM
SF-268 CNS
  GI50: 439 nM
  TGI: 1620 nM
SNB-19 CNS
  GI50: 1850 nM
  TGI: 4250 nM
NCI-H522 lung
  GI50: 366 nM
  TGI: 1110 nM
CCRF-CEM leukemia
  GI50: 276 nM
  TGI: 604 nM
K-562 leukemia
  GI50: 380 nM
  TGI: 1360 nM
MDA-MB-435 melanoma
  GI50: 563 nM
  TGI: 15100 nM
MOLT-4 leukemia
  GI50: 162 nM
  TGI: 336 nM
OVCAR-5 ovarian
  GI50: 1060 nM
  TGI: 3580 nM
HOP-62 NSCLC
  GI50: 1050 nM
  TGI: 2950 nM
RXF 393 renal
  GI50: 612 nM
  TGI: 2360 nM
SW-620 colon
  GI50: 671 nM
  TGI: 8260 nM
ACHN renal
  GI50: 1270 nM
  TGI: 7950 nM

## S=c1nc[nH]c2nc[nH]c12
786-0 renal
  GI50: 468 nM
  TGI: 2200 nM
KM12 colon
  GI50: 1330 nM
HT29 colon
  GI50: 1890 nM
NCI-H322M lung
  GI50: 1060 nM
  TGI: 7280 nM
SK-OV-3 ovarian
  GI50: 569 nM
OVCAR-3 ovarian
  GI50: 168 nM
  TGI: 389 nM
SF-295 CNS
  GI50: 1130 nM
  TGI: 3710 nM
NCI-H23 lung
  GI50: 576 nM
  TGI: 5860 nM
HCT-15 colon
  GI50: 4730 nM
EKVX NSCLC
  GI50: 53900 nM
LOX IMVI melanoma
  GI50: 206 nM
  TGI: 481 nM
SNB-75 CNS
  GI50: 217 nM
  TGI: 5130 nM
UACC-257 melanoma
  GI50: 2040 nM
MDA-MB-468 breast
  GI50: 150 nM
  TGI: 416 nM
A549 NSCLC
  GI50: 5600 nM
  TGI: 57100 nM
HOP-92 NSCLC
  GI50: 301 nM
HL-60(TB) leukemia
  GI50: 357 nM
  TGI: 1840 nM
U251 glioblastoma
  GI50: 3300 nM
A498 renal
  GI50: 10600 nM
  TGI: 96700 nM
RPMI-8226 leukemia
  GI50: 289 nM
  TGI: 1280 nM
SN12C renal
  GI50: 2430 nM
  TGI: 19400 nM
SF-539 CNS
  GI50: 481 nM
  TGI: 2910 nM
IGROV1 ovarian
  GI50: 3630 nM
SK-MEL-28 melanoma
  GI50: 15400 nM
  TGI: 99600 nM
UACC-62 melanoma
  GI50: 876 nM
OVCAR-8 ovarian
  GI50: 1480 nM
  TGI: 5930 nM
T-47D breast
  GI50: 423 nM
HCT-116 colon
  GI50: 1800 nM
PC-3 prostate
  GI50: 2400 nM
TK-10 renal
  GI50: 437 nM
  TGI: 2190 nM
BT-549 breast
  GI50: 482 nM
  TGI: 2300 nM
CAKI-1 renal
  GI50: 1570 nM
  TGI: 5450 nM
MDA-MB-231 breast
  GI50: 395 nM
  TGI: 1860 nM
MCF7 breast
  GI50: 272 nM
  TGI: 10200 nM
NCI-H226 lung
  GI50: 294 nM
  TGI: 11900 nM
NCI/ADR-RES ovarian
  GI50: 2060 nM
  TGI: 8770 nM
UO-31 renal
  GI50: 1860 nM
  TGI: 5230 nM
MALME-3M melanoma
  GI50: 494 nM
  TGI: 3140 nM
M14 melanoma
  GI50: 306 nM
HS 578T breast
  GI50: 473 nM
  TGI: 3380 nM
SF-268 CNS
  GI50: 1110 nM
  TGI: 2800 nM
SNB-19 CNS
  GI50: 11300 nM
  TGI: 37000 nM
NCI-H522 lung
  GI50: 299 nM
  TGI: 1770 nM
CCRF-CEM leukemia
  GI50: 1420 nM
  TGI: 3000 nM
K-562 leukemia
  GI50: 334 nM
  TGI: 950 nM
MDA-MB-435 melanoma
  GI50: 729 nM
MOLT-4 leukemia
  GI50: 151 nM
  TGI: 318 nM
OVCAR-5 ovarian
  GI50: 1250 nM
  TGI: 2800 nM
HOP-62 NSCLC
  GI50: 219 nM
  TGI: 592 nM
RXF 393 renal
  GI50: 241 nM
  TGI: 1160 nM
SW-620 colon
  GI50: 4150 nM
ACHN renal
  GI50: 1830 nM
  TGI: 6910 nM
